Reference: ChEMBL document CHEMBL1201862, “PubChem BioAssay data set” (2004)
Calls of active or inactive are those of the source.

Tests used:
[1] = target: Serine/threonine-protein phosphatase (Homo sapiens, UniProt Q9BPW0); test: PP5 phosphatase inhibitors, dose response, biochemical, fluorescence (AID 2395)
[2] = target: Glucose-6-phosphate 1-dehydrogenase (Homo sapiens, UniProt P11413); test: human G6PD enzyme inhibitors, dose response, selectivity assay for P. falciparum G6PD inhibitor project, biochemical, fluorescence (AID 504792); format: functional
Chain of Glucose-6-phosphate 1-dehydrogenase (P11413 whole entry): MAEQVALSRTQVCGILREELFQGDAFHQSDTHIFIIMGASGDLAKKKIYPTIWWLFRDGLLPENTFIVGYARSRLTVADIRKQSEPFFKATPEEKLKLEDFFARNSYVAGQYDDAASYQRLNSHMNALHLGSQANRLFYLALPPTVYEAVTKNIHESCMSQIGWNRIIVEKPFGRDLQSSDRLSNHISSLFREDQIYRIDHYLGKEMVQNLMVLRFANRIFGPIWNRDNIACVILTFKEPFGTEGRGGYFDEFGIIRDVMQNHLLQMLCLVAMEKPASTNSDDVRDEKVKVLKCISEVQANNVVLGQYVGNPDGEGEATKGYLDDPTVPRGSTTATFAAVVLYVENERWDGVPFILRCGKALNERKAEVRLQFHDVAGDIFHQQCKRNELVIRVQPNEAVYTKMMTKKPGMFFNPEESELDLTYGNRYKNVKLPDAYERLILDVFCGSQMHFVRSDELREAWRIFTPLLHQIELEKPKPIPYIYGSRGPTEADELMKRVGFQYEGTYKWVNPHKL

[3] = target: T1, Apoptotic protease-activating factor 1 (Homo sapiens, UniProt O14727); format: functional
T1 sequence (O14727 whole entry): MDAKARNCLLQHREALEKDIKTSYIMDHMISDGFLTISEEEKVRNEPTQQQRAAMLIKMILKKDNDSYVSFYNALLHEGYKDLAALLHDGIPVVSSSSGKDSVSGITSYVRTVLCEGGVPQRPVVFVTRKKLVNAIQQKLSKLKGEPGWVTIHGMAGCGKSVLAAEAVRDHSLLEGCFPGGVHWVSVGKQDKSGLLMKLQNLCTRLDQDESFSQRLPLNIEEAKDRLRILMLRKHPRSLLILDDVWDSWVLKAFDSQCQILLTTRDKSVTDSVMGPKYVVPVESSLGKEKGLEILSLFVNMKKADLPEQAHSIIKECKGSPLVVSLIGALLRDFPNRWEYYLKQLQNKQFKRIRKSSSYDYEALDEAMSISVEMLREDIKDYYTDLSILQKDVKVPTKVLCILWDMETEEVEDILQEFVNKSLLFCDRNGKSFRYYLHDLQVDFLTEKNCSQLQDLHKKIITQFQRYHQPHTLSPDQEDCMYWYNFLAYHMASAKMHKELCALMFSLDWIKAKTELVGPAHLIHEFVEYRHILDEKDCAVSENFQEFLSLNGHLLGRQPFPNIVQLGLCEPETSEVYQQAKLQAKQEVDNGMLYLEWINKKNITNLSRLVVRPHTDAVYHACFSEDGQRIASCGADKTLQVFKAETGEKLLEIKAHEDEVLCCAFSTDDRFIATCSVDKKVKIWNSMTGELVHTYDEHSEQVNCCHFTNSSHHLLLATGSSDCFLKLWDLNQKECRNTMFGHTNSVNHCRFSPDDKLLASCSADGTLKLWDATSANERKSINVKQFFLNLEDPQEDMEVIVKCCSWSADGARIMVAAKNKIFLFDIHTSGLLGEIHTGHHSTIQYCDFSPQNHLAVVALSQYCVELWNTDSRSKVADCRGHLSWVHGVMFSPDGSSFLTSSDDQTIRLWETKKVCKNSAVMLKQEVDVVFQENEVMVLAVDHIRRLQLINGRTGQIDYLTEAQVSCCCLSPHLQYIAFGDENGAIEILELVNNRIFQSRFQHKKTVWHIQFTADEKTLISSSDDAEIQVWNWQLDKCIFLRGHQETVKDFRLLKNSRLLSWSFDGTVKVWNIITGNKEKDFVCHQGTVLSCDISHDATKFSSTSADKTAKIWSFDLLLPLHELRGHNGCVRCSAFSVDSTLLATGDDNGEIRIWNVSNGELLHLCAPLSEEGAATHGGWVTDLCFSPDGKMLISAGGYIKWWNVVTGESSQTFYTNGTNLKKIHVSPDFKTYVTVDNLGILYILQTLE

[4] = target: Serine/threonine-protein phosphatase PP1-alpha catalytic subunit (Homo sapiens, UniProt P62136); test: PP1 phosphatase inhibitors, dose response, biochemical, fluorescence (AID 2394)
Genome polyprotein = Genome polyprotein (dengue virus type 2, UniProt P29990); test: Dengue-2 NS5 methyltransferase inhibitors, primary screen, biochemical, confirmation dose response (AID 588689); format: functional
Chain of Genome polyprotein (P29990 2492-3391 limits assumed): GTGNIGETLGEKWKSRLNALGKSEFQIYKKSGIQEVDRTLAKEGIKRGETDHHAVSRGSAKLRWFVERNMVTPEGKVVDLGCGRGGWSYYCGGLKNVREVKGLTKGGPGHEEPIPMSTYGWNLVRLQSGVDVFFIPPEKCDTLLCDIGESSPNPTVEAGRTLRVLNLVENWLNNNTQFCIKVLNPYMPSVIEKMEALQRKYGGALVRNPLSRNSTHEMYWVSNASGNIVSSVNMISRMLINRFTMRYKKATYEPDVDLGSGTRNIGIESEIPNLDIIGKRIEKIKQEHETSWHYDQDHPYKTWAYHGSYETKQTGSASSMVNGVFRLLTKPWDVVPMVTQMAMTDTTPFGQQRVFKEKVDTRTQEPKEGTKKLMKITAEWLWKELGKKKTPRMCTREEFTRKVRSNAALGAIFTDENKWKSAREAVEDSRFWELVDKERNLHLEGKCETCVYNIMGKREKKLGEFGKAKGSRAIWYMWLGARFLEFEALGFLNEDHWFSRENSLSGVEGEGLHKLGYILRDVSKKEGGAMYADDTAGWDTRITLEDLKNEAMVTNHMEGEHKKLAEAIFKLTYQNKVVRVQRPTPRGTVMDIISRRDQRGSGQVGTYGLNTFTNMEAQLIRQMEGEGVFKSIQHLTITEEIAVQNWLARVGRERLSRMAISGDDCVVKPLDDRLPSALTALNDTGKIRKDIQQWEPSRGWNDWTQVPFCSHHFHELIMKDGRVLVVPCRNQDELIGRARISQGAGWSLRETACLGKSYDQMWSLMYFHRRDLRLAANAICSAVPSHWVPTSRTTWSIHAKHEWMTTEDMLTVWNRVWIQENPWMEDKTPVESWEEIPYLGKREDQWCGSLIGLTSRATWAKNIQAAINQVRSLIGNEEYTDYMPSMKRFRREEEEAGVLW

Bcl-2-related protein A1 [5] = target: T2, Bcl-2-related protein A1 (Mus musculus, UniProt Q07440); test: Bfl-1 binding inhibitors, SAR follow-up, biochemical, fluorescence polarization (AID 1070)
T2 sequence (Q07440 whole entry): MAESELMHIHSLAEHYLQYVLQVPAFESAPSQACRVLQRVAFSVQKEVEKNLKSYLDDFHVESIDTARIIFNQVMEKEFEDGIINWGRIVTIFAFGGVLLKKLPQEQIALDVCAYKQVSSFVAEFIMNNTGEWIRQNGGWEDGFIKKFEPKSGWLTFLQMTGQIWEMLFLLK

[6] = target: Glyceraldehyde-3-phosphate dehydrogenase (Homo sapiens, UniProt P04406)
Chain of Glyceraldehyde-3-phosphate dehydrogenase (P04406 whole entry): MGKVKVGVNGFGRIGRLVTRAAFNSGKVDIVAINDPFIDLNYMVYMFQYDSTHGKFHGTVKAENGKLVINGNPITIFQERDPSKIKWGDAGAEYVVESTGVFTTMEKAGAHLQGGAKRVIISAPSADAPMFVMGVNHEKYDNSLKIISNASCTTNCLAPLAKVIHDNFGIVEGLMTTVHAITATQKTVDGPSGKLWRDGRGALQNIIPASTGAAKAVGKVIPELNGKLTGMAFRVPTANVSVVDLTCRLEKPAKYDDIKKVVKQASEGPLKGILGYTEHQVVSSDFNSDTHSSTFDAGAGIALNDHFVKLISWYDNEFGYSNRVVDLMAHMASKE

Bcl-2-related protein A1 [7] = target: T2, Bcl-2-related protein A1; test: Bfl-1 inhibitors blocking BH3 peptide binding, confirmation, biochemical, TR-FRET, mouse Bfl-1 (AID 621);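 note: TR-FRET binding of GST-Bfl-1 to FITC-labelled Bid peptide via terbium antibody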
[8] = Vero cell cytotoxicity, dose response, cytotoxicity control for Vif-APOBEC3G degradation inhibitor project, Vero cells (AID 1117358); format: functional; details: Human immunodeficiency virus 1, Vero
Vero = test: host cell cytotoxicity of antiviral hits, dose response, cytotoxicity control for West Nile virus antiviral project, secondary assay (AID 1650); format: functional; details: Chlorocebus sabaeus
[9] = target: Voltage-gated inwardly rectifying potassium channel KCNH2 (Homo sapiens, UniProt Q12809); test: hERG protection from proarrhythmic block, potency, dose response, cell-based, thallium flux (AID 2121); format: ADME
Chain of Voltage-gated inwardly rectifying potassium channel KCNH2 (Q12809 whole entry): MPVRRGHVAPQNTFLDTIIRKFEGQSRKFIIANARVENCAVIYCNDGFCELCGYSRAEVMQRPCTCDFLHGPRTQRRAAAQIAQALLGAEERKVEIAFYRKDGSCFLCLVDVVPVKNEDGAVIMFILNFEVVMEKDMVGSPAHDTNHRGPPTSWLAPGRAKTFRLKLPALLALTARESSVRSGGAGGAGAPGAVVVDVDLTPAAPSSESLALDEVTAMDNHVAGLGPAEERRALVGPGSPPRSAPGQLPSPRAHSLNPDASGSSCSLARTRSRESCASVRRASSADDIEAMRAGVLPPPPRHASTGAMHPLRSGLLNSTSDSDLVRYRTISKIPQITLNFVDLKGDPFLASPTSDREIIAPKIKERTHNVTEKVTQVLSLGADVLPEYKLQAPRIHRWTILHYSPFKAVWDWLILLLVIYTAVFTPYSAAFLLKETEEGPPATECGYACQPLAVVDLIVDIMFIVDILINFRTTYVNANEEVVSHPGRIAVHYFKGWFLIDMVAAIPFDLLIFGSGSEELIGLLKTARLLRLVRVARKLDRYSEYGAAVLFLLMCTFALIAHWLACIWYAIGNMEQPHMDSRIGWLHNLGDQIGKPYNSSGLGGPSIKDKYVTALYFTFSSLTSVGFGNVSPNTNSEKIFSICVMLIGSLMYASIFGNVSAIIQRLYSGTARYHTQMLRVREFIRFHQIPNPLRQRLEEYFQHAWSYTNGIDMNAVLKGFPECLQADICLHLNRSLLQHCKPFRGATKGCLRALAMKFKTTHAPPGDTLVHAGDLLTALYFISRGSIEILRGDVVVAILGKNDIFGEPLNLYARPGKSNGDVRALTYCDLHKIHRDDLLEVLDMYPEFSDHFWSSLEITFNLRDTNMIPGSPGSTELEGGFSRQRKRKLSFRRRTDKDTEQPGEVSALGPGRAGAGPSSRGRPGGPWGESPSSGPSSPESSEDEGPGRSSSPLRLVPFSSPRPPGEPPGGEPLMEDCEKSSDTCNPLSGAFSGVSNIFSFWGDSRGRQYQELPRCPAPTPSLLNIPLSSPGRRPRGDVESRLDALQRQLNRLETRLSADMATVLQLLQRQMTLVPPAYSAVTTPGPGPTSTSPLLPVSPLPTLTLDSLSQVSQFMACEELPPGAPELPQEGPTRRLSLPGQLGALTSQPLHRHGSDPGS

Protein RecA = target: T3, Protein RecA (Mycobacterium tuberculosis, UniProt P9WHJ3); test: Fluorescence Cell-Free Homogeneous Dose Retest to Identify Inhibitors of RecA-Intein Splicing Activity. [Related pubchem assays (depositor defined):AID2097, AID2223, AID489010, AID492950]; format: functional
T3 sequence (P9WHJ3 whole entry): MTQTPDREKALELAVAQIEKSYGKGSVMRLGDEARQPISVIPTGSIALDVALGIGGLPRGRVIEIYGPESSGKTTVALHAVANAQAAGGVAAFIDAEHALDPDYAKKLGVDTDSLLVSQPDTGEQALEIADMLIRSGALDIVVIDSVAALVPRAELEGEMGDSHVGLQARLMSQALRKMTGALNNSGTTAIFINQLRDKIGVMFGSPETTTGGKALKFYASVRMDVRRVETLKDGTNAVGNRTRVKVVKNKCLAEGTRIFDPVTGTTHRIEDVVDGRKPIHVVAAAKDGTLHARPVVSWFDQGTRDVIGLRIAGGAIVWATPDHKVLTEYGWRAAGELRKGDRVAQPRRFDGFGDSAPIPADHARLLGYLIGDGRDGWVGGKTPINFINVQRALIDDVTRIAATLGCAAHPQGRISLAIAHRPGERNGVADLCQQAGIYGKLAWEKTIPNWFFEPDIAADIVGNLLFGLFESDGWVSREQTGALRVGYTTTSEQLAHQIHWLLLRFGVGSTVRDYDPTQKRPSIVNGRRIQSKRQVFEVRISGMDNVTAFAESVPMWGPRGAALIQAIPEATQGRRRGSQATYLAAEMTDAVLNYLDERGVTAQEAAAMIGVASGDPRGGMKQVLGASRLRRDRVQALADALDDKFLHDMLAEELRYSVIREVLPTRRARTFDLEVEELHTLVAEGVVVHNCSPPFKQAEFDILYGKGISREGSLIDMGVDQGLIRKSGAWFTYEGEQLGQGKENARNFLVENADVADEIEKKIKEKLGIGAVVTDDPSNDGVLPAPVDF

Cytochrome P450 2D6 = Cytochrome P450 2D6 (Homo sapiens, UniProt P10635);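 note: CYP2D6 member of a cytochrome P450 panel assay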
Chain of Cytochrome P450 2D6 (P10635 whole entry): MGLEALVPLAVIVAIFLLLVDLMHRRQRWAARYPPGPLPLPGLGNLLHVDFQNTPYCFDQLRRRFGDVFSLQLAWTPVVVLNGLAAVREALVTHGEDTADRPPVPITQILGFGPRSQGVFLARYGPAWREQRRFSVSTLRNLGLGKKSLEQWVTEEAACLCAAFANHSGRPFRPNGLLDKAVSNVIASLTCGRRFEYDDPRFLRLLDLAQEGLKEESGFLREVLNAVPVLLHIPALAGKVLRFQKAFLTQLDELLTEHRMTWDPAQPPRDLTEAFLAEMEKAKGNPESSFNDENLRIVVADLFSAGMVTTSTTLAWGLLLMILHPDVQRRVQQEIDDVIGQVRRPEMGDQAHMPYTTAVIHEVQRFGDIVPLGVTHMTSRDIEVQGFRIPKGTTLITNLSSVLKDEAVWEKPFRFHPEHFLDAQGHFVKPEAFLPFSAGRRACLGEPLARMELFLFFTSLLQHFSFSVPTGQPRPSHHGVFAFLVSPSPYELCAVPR

[10] = target: T4, Replicative DNA helicase DnaB (Mycobacterium tuberculosis, UniProt P9WMR3); test: DnaB intein splicing inhibitors, dose response, biochemical, cell-free fluorescence (AID 449749); format: functional
T4 sequence (P9WMR3 whole entry): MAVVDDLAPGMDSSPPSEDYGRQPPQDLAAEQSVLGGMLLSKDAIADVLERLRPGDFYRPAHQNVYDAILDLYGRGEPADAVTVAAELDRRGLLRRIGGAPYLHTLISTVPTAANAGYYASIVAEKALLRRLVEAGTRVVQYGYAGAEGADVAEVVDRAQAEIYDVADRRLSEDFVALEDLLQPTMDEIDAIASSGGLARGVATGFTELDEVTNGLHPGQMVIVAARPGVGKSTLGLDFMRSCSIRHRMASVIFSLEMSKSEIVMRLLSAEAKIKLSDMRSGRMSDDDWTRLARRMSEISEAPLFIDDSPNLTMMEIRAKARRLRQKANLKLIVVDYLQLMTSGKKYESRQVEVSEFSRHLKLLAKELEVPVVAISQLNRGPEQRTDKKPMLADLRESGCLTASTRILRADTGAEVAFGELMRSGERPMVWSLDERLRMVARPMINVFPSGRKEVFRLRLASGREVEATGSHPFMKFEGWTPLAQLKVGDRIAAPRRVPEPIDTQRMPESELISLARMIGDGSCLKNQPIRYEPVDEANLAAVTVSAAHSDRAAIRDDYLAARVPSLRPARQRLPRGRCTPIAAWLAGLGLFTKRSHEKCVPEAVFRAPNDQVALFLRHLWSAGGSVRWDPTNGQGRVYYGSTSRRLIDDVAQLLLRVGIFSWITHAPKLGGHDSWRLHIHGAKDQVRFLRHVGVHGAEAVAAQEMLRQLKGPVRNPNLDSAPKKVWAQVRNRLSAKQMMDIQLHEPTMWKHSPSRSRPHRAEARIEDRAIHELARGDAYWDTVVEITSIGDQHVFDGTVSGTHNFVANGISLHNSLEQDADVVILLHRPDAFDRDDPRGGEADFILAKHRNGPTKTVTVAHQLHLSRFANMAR

[11] = Luminescence Cell-Based Dose Response to Identify Activators of 5'UTR Stem-Loop Driven Prion Protein mRNA Translation in H4-C Neuroglioblastoma Cells. [Related pubchem assays: 1829 (Project Summary), 1814 (Primary HTS)]; format: functional
H4 = test: Luminescence Cell-Based Dose Response HTS to Identify Activators of 5'UTR Stem-Loop Driven Prion Protein mRNA Translation in H4 Neuroglioblastoma Cells. [Related pubchem assays: 1829 (Project Summary), 1814 (Primary HTS)]; format: functional; details: Homo sapiens
[12] = Luminescence Cell-Based Dose Response to Identify Activators of Luciferase Translation or Activity in H4-C Neuroglioblastoma Cells. [Related pubchem assays: 1829 (Project Summary), 1814 (Primary HTS)]; format: functional
Estrogen receptor = target: T5, Estrogen receptor (Homo sapiens, UniProt P03372);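 note: potency for inhibiting coactivator peptide recruitment to the receptor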
T5 sequence (P03372 whole entry): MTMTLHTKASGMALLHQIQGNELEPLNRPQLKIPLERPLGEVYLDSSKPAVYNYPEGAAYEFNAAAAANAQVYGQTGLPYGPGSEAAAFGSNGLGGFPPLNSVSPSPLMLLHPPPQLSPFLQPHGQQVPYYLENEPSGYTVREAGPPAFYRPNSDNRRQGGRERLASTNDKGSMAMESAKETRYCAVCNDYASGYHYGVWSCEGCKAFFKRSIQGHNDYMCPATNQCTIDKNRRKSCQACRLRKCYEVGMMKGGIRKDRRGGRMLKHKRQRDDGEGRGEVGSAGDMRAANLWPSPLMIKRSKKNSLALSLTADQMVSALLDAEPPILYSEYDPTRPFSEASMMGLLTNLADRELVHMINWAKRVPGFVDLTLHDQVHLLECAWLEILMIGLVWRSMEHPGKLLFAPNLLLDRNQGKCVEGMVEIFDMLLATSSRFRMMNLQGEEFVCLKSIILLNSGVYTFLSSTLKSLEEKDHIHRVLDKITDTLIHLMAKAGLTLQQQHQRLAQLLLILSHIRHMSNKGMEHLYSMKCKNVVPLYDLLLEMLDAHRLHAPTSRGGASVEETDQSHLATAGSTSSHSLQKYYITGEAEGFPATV

Cytochrome P450 1A2 = target: T6, Cytochrome P450 1A2 (Homo sapiens, UniProt P05177);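 note: PubChem cytochrome P450 panel assay, CYP1A2 panel member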
T6 sequence (P05177 whole entry): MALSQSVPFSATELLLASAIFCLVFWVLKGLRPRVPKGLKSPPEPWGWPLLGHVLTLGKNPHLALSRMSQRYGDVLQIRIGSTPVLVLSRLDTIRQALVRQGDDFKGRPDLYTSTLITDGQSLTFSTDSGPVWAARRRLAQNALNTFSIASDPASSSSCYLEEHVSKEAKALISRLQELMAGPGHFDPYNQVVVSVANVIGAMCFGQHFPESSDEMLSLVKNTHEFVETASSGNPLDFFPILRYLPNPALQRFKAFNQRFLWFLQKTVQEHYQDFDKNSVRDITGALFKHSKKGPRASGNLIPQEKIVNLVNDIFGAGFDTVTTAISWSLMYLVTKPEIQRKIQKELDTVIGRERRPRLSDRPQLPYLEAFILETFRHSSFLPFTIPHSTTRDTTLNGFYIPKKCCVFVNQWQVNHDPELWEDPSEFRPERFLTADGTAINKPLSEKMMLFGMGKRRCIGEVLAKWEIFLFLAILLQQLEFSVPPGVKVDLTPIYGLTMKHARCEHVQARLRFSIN

Cytochrome P450 2C9 = Cytochrome P450 2C9 (Homo sapiens, UniProt P11712)
Chain of Cytochrome P450 2C9 (P11712 whole entry): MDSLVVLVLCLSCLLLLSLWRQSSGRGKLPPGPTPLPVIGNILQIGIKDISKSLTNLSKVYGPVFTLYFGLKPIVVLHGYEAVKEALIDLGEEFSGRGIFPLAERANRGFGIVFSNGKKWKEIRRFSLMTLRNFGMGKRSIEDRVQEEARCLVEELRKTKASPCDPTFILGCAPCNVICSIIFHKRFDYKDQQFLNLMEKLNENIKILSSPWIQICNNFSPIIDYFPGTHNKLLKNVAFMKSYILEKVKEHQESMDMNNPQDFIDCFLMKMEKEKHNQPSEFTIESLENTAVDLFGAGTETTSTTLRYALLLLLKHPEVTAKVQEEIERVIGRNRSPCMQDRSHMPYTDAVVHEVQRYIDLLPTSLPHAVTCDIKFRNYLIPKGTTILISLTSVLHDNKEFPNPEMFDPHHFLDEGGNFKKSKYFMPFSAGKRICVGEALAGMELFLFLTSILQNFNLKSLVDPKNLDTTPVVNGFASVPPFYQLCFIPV

[13] = Luminescence Cell-Based Dose Retest to Confirm Inhibitors of Cancer Stem Cells. [Related pubchem assays (depositor defined):AID2717, AID2721]; format: functional; details: Homo sapiens
[14] = Luminescence Cell-Based Dose Response HTS to Identify Activators of Luciferase Translation or Activity in H4 […] Cells. [Related pubchem assays: 1829 (Project Summary), 1814 (Primary HTS)]; format: functional
[15] = Luminescence Cell-Based Dose Confirmation to Identify Activators of 5'UTR Stem-Loop Driven Alpha-Synuclein mRNA Translation in H4 Neuroglioblastoma Cells. [Related pubchem assays: 1829 (Project Summary), 1814 (Primary HTS)]; format: functional
Cytochrome P450 2C19 = Cytochrome P450 2C19 (Homo sapiens, UniProt P33261); test: Cytochrome panel assay with activity outcomes. Panel member name: p450-cyp2c19 Compounds with AC50 equal or less than 10 uM are considered active; format: functional; details: read-out: AC50
Chain of Cytochrome P450 2C19 (P33261 whole entry): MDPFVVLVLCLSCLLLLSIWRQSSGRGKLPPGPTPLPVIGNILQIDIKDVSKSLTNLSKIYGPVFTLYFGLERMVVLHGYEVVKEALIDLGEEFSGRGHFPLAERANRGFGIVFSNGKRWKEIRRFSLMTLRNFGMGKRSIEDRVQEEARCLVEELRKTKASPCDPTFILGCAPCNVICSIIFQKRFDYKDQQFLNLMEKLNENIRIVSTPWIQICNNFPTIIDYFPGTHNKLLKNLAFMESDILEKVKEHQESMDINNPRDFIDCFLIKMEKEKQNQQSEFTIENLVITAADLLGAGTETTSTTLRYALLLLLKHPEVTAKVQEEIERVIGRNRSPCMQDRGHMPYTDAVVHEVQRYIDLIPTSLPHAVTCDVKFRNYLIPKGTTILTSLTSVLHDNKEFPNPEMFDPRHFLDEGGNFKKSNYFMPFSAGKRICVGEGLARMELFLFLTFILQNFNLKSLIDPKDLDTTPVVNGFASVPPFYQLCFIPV

Chain of Serine/threonine-protein phosphatase (Q9BPW0 whole entry): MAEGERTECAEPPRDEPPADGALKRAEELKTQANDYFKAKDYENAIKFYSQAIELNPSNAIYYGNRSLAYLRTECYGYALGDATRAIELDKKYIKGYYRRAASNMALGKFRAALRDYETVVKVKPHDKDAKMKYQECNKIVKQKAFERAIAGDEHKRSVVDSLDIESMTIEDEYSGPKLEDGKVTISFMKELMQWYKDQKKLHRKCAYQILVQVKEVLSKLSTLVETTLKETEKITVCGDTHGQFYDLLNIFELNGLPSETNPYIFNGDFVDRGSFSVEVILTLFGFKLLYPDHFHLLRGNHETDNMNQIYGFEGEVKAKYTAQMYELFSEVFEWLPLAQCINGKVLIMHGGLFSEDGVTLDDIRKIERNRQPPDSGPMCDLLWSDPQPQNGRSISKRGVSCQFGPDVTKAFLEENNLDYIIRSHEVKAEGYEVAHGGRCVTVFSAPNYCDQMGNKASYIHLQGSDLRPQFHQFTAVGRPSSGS

COC(=O)CCC(=O)OC1(C)C(=O)C2=CN(C3CC3)C(c3ccc(OC)cc3)=CC2=C(Br)C1=O (centres undefined)
IC50 [1]: 8.96 µM (active) | IC50 [2]: 31.1 µM (inactive) | IC50 [3]: 22 µM (active) | IC50 [4]: 46.2 µM (not active) | IC50 (Genome polyprotein): > 100 µM (active)

O=C1C(Cl)=C(N2CCOCC2)C(=O)N1c1cccc(Cl)c1Cl
IC50 (Bcl-2-related protein A1 [5]): 4.05 µM (active) | IC50 [6]: > 10 µM (inconclusive) | IC50 (Bcl-2-related protein A1 [7]): 1.52 µM (active)

Cc1cc(C)n(Cc2ccc(NC(=O)c3nn(C)cc3[N+](=O)[O-])cc2)n1
CC50 [8]: 20.8 µM (active) | CC50 (Vero): 9.3 µM (active)

CN1C(=O)/C(=N\OC(=O)c2cccc3ccccc23)c2ccccc21
EC50 [9]: 1.17 µM (active) | EC50 (Protein RecA): 15 µM (active) | AC50 (Cytochrome P450 2D6): 12.6 µM (inconclusive) | AC50 [10]: 7.38 µM (active)

CCCc1cc2c(=O)c(-c3ccc4c(c3)OCCO4)coc2cc1OC(=O)c1ccco1
EC50 [11]: 0.306 µM (active) | EC50 (H4): > 120 µM (not active) | EC50 [12]: 0.376 µM (active) | IC50 (Estrogen receptor): > 50 µM (not active) | AC50 (Cytochrome P450 1A2): 2 µM (inconclusive) | AC50 (Cytochrome P450 2C9): inconclusive | AC50 [13]: 3.85 µM (active) | EC50 [14]: < 0.1 µM (active) | EC50 [15]: 0.388 µM (active) | AC50 (Cytochrome P450 2C19): 2.51 µM (inconclusive)
